{
  "source": "patent US20120195978A1",
  "about": "“CAPCNA PEPTIDE THERAPEUTICS FOR CANCER” (Indiana University Research and Technology Corpora, priority 2009, published 2012)",
  "key": {"[1]": {"tested_on": "HCC1937 cells lacking BRCA1", "experiment": "MTT assay, caPCNA peptides alone and in combination with cisplatin", "type": "cell-based, human", "method": "Breast cancer cells were obtained from a patient harboring a hereditary mutation in BRCA1, a major component of DNA double strand break repair (HCC1937 cells). HCC1937 is a near-tetraploid cell line from mammary gland whose cells are homozygous for a frameshift mutation in BRCA1. The cell line is available at ATCC.\nMTT [3-(4,5-dimethylthiazol-2-yl)-2,5-diphenyltetrazolium bromide] assays were conducted with caPCNA peptides at a variety of time points both alone and in combination with a DNA damaging agent e.g., cisplatin in HCC1937 and HCC1937+wild-type BRCA1 cells. The MTT assay is based on the ability of a mitochondrial dehydrogenase enzyme from viable cells to cleave the tetrazolium rings of the pale yellow MTT dye and form dark blue formazan crystals. These formazan crystals are largely impermeable to cell membranes and thus accumulate within healthy cells. Solubilization of the cells by the addition of a detergent results in the liberation and solubilization of the crystals. The number of proliferating cells is directly proportional to the level of formazan product created. The color can then be quantified using a simple colorimetric assay. The results are read on a multiwall scanning spectrophotometer (ELISA reader). The peptides used in these experiments including caPCNA peptide, Q131A ([…] (SEQ ID NO: 5)), and P129A ([…] (SEQ ID NO: 3)) were ordered and obtained from Anaspec (Fremont, Calif.). ca PCNA peptide was dissolved in sterile 1×PBS solution to create a 1.5 mM stock concentration. caPCNA peptides with alanine substitutions (e.g., P129A (SEQ ID NO: 3) and Q131A (SEQ ID NO: 5)) were dissolved in sterile 1×PBS solution to create 1.0 mM stock solutions.\nMTT assays: The efficacy of caPCNA peptides (caPeptides) were tested using the MTT assays: HCC1937 and HCC137+wildtype BRCA1 cells were grown in DMEM 1× (supplemented with 10% fetal bovine serum and 5% penicillin/streptomycin) and were plated at a densities of 5.5×10^3 or 7×10^3, respectively, in 96 well plates (100 μL total volume per well) and allowed to attach overnight in a 37° C. incubator (5% CO2). Then, caPCNA peptide stock solution was diluted to final working concentrations in DMEM 1× (10% fetal bovine serum and 5% penicillin/streptomycin) of 150 μM, 100 μM, 75 μM, 50 and 25 μM. Media was removed from cells and replaced with media containing caPCNA peptide at various concentrations (200 μL total volume per well). Cells were cultured with caPCNA peptide-containing media for 24, 48 or 72 hours. At the appropriate treatment timepoint, 20 μL MTT (5 mg/mL in PBS) reagent was added to each well and plates were incubated for an additional 4 hours. Media/dye solution was then aspirated and 200 μL DMSO was added to each well. Plates were rocked at room temperature for five minutes to dissolve crystals and transferred to an ELISA plate reader. Absorbance was measured at 550 nm. The extent to which caPeptides inhibited cell proliferation was calculated as a percentage of the absorbance in each well containing caPCNA peptide relative to wells containing no caPCNA peptide (negative control) for both HCC1937 and HCC1937+wild-type BRCA1 cells.\nEfficacy of P129A (SEQ ID NO: 3) and Q131A (SEQ ID NO: 5) caPCNA peptides: Cells were cultured and plated in 96 well plates as described herein. P129A (SEQ ID NO: 3) or Q131A (SEQ ID NO: 5) stock solution was diluted to final working concentrations in DMEM 1× (10% fetal bovine serum and 5% penicillin/streptomycin) of 100 μM, 75 μM, 50 μM, 25 μM, and 12.5 μM. Media was removed from cells and replaced with media containing P129A (SEQ ID NO: 3) or Q131A (SEQ ID NO: 5) caPCNA peptides at various concentrations (200 μL total volume per well) and cells were cultured with peptide-containing media for 24 hours. After 24 hours, the MTT assay was completed and data analysis was performed as described herein. […]"}, "[2]": {"tested_on": "HCC1937+wild-type BRCA1 cells", "experiment": "MTT assay, caPCNA peptides alone and in combination with cisplatin", "type": "cell-based, human", "method": "As a genetically matched control, wild-type BRCA1 has been transduced into HCC1937 cells (referred to as HCC1937+wild-type BRCA1). HCC1937+wild-type BRCA1 cells were selected for maintenance of the vector using 1 μg/mL puromycin. All cells in these assays were used at passage numbers <25.\nMTT [3-(4,5-dimethylthiazol-2-yl)-2,5-diphenyltetrazolium bromide] assays were conducted with caPCNA peptides at a variety of time points both alone and in combination with a DNA damaging agent e.g., cisplatin in HCC1937 and HCC1937+wild-type BRCA1 cells. […] The color can then be quantified using a simple colorimetric assay. The results are read on a multiwall scanning spectrophotometer (ELISA reader). […]\nMTT assays: The efficacy of caPCNA peptides (caPeptides) were tested using the MTT assays: HCC1937 and HCC137+wildtype BRCA1 cells were grown in DMEM 1× (supplemented with 10% fetal bovine serum and 5% penicillin/streptomycin) and were plated at a densities of 5.5×10^3 or 7×10^3, respectively, in 96 well plates (100 μL total volume per well) and allowed to attach overnight in a 37° C. incubator (5% CO2). […] Plates were rocked at room temperature for five minutes to dissolve crystals and transferred to an ELISA plate reader. Absorbance was measured at 550 nm. […]"}, "U937 cells": {"tested_on": "U937 cells", "experiment": "Cytotoxic effects of R9-linked caPCNA peptides, % cell death by flow cytometry", "type": "cell-based", "conditions": "for Effect of alanine substitution on cytotoxic action of the peptide (in words): compared with unsubstituted R9-caPCNA peptide", "method": "R9 refers to a cell penetrating peptide that includes a polyarginine sequence e.g., nine contiguous arginine residues. Alanine substitutions in the caPCNA peptide affect its cytotoxic action. U937 cells were treated with each alanine substituted peptide and the scrambled peptide and % cell death evaluated by flow cytometry."}, "MCF 10A (non-malignant)": {"tested_on": "MCF 10A (non-malignant)", "experiment": "Preferential killing of cancer cells by R9-caPeptide", "type": "cell-based"}, "MCF 7 (breast cancer)": {"tested_on": "MCF 7 (breast cancer)", "experiment": "Preferential killing of cancer cells by R9-caPeptide", "type": "cell-based"}, "HCC1937 cells": {"tested_on": "HCC1937 cells", "experiment": "Clonogenic survival assay after caPCNA peptide treatment", "type": "cell-based, human", "conditions": "100 μM peptide for 48 hours, 13 days growth; effect more pronounced than in cells with wild-type BRCA1", "method": "(§1) Clonogeizic survival assay: Clonogenic survival after caPCNA peptide treatment: The purpose of this experiment was to determine the effects of high caPCNA peptide treatment (100 μM caPCNA peptide for 48 hours) on ability of cells plated at low density to proliferate and form colonies. HCC1937 and HCC1937+wild-type BRCA1 cells were plated in 6-well plates and allowed to attach overnight at 37° C.\n(§2) Then, media was removed and replaced with 100 μM caPCNA peptide in DMEM 1× (10% fetal bovine serum and 5% penicillin/streptomycin). Untreated cells were used as a negative control. Plates were incubated with media containing peptide for 48 hours. Live cells were then collected, counted, plated at low density ([…] cells in 10 cm2 dishes) and allowed to grow in DMEM 1× (20% fetal bovine serum, 5% penicillin/streptomycin) for 13 days. After 13-day incubation, media was removed and plates were washed twice with 1×PBS. Cells were fixed with 70% EtOH for 10 minutes, dried, and stained for 1 hour with 20% Giemsa diluted in MilliQ water. Dye was removed; plates were rinsed, dried overnight and photographed. Images shown are representative of results obtained for treated and untreated HCC1937 and HCC1937+wild-type BRCA1 cells."}, "[3]": {"tested_on": "HCC1937+wild-type BRCA1 cells", "experiment": "Clonogenic survival assay after caPCNA peptide treatment", "type": "cell-based, human", "conditions": "100 μM peptide for 48 hours, 13 days growth", "method": "as §1, §2"}, "[4]": {"conditions": "HCC1937 and HCC1937+wild-type BRCA1 cells, 24 hours"}},
  "note": "pIC50: −log10 of the molar value. No end group written: not given here.",
  "data": [
    {"molecule": "N.N.[Cl][Pt][Cl]", "note": "[cisplatin, reference compound]", "values": [
      {"measurement": "pIC50", "setting": "[1]; HCC1937 cells lacking BRCA1, cisplatin alone, FIG. 4A, read-out: IC50 value for cisplatin alone (growth inhibition)", "result": "~3.81"},
      {"measurement": "Sensitivity of cells to cisplatin (MTT)", "setting": "[1]; HCC1937 cells, FIG. 3A", "result": "relatively resistant"},
      {"measurement": "Sensitivity of cells to cisplatin (MTT)", "setting": "[2]; HCC1937+wild-type BRCA1 cells, FIG. 3B", "result": "relatively resistant"},
      {"measurement": "pIC50", "setting": "[2]; HCC1937 cells with BRCA1, cisplatin alone, FIG. 4B, read-out: IC50 value for cisplatin alone (growth inhibition)", "result": "< 3.70"}
    ]},
    {"molecule": "A1-sub. Peptide: R9-linked caPCNA 126-133 peptide with alanine at position 1, L126 (SEQ ID NO: 59) (RRRRRRRRRAGIPEQEY; R9 linked)", "values": [
      {"measurement": "Effect of alanine substitution on cytotoxic action of the peptide (in words)", "setting": "U937 cells", "result": "reduced cytotoxic activity"}
    ]},
    {"molecule": "A2-sub. Peptide: R9-linked caPCNA 126-133 peptide with alanine at position 2, G127 (SEQ ID NO: 60) (RRRRRRRRRLAIPEQEY; R9 linked)", "values": [
      {"measurement": "Effect of alanine substitution on cytotoxic action of the peptide (in words)", "setting": "U937 cells", "result": "neutral change"}
    ]},
    {"molecule": "A3-sub. Peptide: R9-linked caPCNA 126-133 peptide with alanine at position 3, I128 (SEQ ID NO: 61) (RRRRRRRRRLGAPEQEY; R9 linked)", "values": [
      {"measurement": "Effect of alanine substitution on cytotoxic action of the peptide (in words)", "setting": "U937 cells", "result": "decrease in cytotoxic action but not to the levels of aa126 or aa133"}
    ]},
    {"molecule": "A4-sub. Peptide: R9-linked caPCNA 126-133 peptide with alanine at position 4, P129 (SEQ ID NO: 62) (RRRRRRRRRLGIAEQEY; R9 linked)", "values": [
      {"measurement": "Effect of alanine substitution on cytotoxic action of the peptide (in words)", "setting": "U937 cells", "result": "increase in cytotoxicity"}
    ]},
    {"molecule": "A5-sub. Peptide: R9-linked caPCNA 126-133 peptide with alanine at position 5, E130 (SEQ ID NO: 63) (RRRRRRRRRLGIPAQEY; R9 linked)", "values": [
      {"measurement": "Effect of alanine substitution on cytotoxic action of the peptide (in words)", "setting": "U937 cells", "result": "neutral change"}
    ]},
    {"molecule": "A6-sub. Peptide: R9-linked caPCNA 126-133 peptide with alanine at position 6, Q131 (SEQ ID NO: 64) (RRRRRRRRRLGIPEAEY; R9 linked)", "values": [
      {"measurement": "Effect of alanine substitution on cytotoxic action of the peptide (in words)", "setting": "U937 cells", "result": "increase in cytotoxicity"}
    ]},
    {"molecule": "A7-sub. Peptide: R9-linked caPCNA 126-133 peptide with alanine at position 7, E132 (SEQ ID NO: 65) (RRRRRRRRRLGIPEQAY; R9 linked)", "values": [
      {"measurement": "Effect of alanine substitution on cytotoxic action of the peptide (in words)", "setting": "U937 cells", "result": "increase in cytotoxicity"}
    ]},
    {"molecule": "A8-sub. Peptide: R9-linked caPCNA 126-133 peptide with alanine at position 8, Y133 (SEQ ID NO: 66) (RRRRRRRRRLGIPEQEA; R9 linked)", "values": [
      {"measurement": "Effect of alanine substitution on cytotoxic action of the peptide (in words)", "setting": "U937 cells", "result": "reduced cytotoxic activity"}
    ]},
    {"molecule": "LGIAEQEY [Peptide P129A]", "values": [
      {"measurement": "Efficacy in comparison to wild-type peptides (MTT)", "setting": "[1]; [4]", "result": "enhanced efficacy"}
    ]},
    {"molecule": "LGIPEAEY [Peptide Q131A]", "values": [
      {"measurement": "Efficacy in comparison to wild-type peptides (MTT)", "setting": "[1]; [4]", "result": "enhanced efficacy"},
      {"measurement": "Rank of efficacy among the peptides tested (MTT)", "setting": "[1]; [4]", "result": "appears to be more effective of these peptides tested"}
    ]},
    {"molecule": "R9-caPeptide: R9 (nonaarginine)-linked caPCNA peptide of Table 6; exact sequence not printed there (LGIPEQEY; also: linked to nonaarginine (R9), site not given here; UniProt P12004 126-133, looked up, fragment) [Peptide R9-caPeptide]", "values": [
      {"measurement": "% Dead Cells", "setting": "MCF 10A (non-malignant)", "result": 18.2, "unit": "%"},
      {"measurement": "% Dead Cells", "setting": "MCF 7 (breast cancer)", "result": 91.5, "unit": "%"}
    ]},
    {"molecule": "Unsub. Peptide: R9-linked caPCNA 126-133 peptide LGIPEQEY, unsubstituted (SEQ ID NO: 58) (RRRRRRRRRLGIPEQEY; R9 linked)", "values": [
      {"measurement": "% cancer cell death", "setting": "U937 cells; flow cytometry", "result": "43 ± 10", "unit": "%"}
    ]},
    {"molecule": "caPCNA peptide: caPCNA-derived peptide (aa 126-133) obtained from Anaspec; the figure legends call it R9-caPCNA / R9-PCNA peptide (LGIPEQEY; also: R9 (nonaarginine) linked, site not given here; UniProt P12004 126-133, looked up, fragment)", "values": [
      {"measurement": "Sensitivity of cells to caPCNA peptides (MTT)", "setting": "[1]; HCC1937 in comparison to HCC1937+wild-type BRCA1 cells, 24, 48 and 72 hour treatment", "result": "trend of increased sensitivity"},
      {"measurement": "Colony formation", "setting": "HCC1937 cells", "result": "inhibits colony formation"},
      {"measurement": "Colony formation", "setting": "[3]", "result": "inhibits colony formation"}
    ]}
  ]
}
